Measurements as given in patent US8933110B2, “Hepatitis C virus inhibitors” (Enanta Pharmaceuticals, Inc., priority 2010, dated 2015).
Read-outs that look alike come from different tables or passages of the source.

System: HCV 1b genotype replicon
Assay: HCV replicon assay (qRT-PCR or luciferase), genotype 1b
Assay type: cell-based
Settings: Hepatitis C virus
Excerpt: HCV replicon cell lines (kindly provided by R. Bartenschlager) isolated from colonies as described by Lohman et al. (Lohman et al. (1999) Science 285: 110-113, expressly incorporated by reference in its entirety) and used for all experiments. The HCV replicon has the nucleic acid sequence set forth in EMBL Accession No.: AJ242651, the coding sequence of which is from nucleotides 1801 to 8406.
The coding sequence of the published HCV replicon was synthesized and subsequently assembled in a modified plasmid pBR322 (Promega, Madison, Wis.) using standard molecular biology techniques. One replicon cell line (“SGR 11-7”) stably expresses HCV replicon RNA which consists of (i) the HCV 5′UTR fused to the first 12 amino acids of the capsid protein, (ii) the neomycin phosphotransferase gene (neo), (iii) the IRES from encephalomyocarditis virus (EMCV) and (iv) HCV NS2 to NS5B genes and the HCV 3′UTR. Another replicon cell line (“Huh-luc/neo-ET”) described by Vrolijk et. al. (Vrolijk et. al. (2003) Journal of Virological Methods 110:201-209, expressly incorporated by reference in its entirety) stably expresses HCV replicon RNA which consists of (i) the HCV 5′UTR fused to the first 12 amino acids of the capsid protein, (ii) the firefly luciferase reporter gene, (iii) the ubiquitin gene, (iv) the neomycin phosphotransferase gene (neo), (v) the IRES from encephalomyocarditis virus (EMCV) and (vi) HCV NS3 to NS5B genes that harbor cell culture adaptive mutations (E1202G, T12801, K1846T) and the HCV 3′UTR.
These cell lines are maintained at 37° C., 5% CO2, 100% relative humidity in DMEM (Cat#11965-084, Invitrogen), with 10% fetal calf serum (“FCS”, Invitrogen), 1% non-essential amino acids (Invitrogen), 1% of Glutamax (Invitrogen), 1% of 100× penicillin/streptomycin (Cat#15140-122, Invitrogen) and Geneticin (Cat#10131-027, Invitrogen) at 0.75 mg/ml or 0.5 mg/ml for 11-7 and Huh-luc/neo-ET cells, respectively.
EC50 values of single agent compounds were determined by HCV RNA detection using quantitative RT-PCR, according to the manufacturer's instructions, with a TAQMAN® One-Step RT-PCR Master Mix Reagents Kit (Cat#AB 4309169, Applied Biosystems) on an ABI Model 7500 thermocycler. EC50 values of combinations are similarly determined by HCV RNA detection using quantitative RT-PCR. The TAQMAN primers to use for detecting and quantifying HCV RNA obtained from Integrated DNA Technologies. HCV RNA is normalized to GAPDH RNA levels in drug-treated cells, which is detected and quantified using the Human GAPDH Endogenous Control Mix (Applied Biosystems, AB 4310884E). Total cellular RNA is purified from 96-well plates using the RNAqueous 96 kit (Ambion, Cat#AM1812). Chemical agent cytotoxicity is evaluated using an MTS assay according to the manufacturer's directions (Promega).
Since clinical drug resistance often develops in viral infections following single agent therapies, there is a need to assess the additive, antagonistic, or synergistic properties of combination therapies. We use the HCV replicon system to assess the potential use of the compound of the present invention or in combination therapies with Interferon alpha, cyclosporine analogs and inhibitors targeting other HCV proteins. The acute effects of a single or combinations of drugs are studied in the “Huh-luc/neo-ET” replicon with each chemical agent titrated in an X or Y direction in a 6 point two-fold dilution curve centered around the EC50 of each drug. Briefly, replicon cells are seeded at 7,000 cells per well in 90 ul DMEM (without phenol red, Invitrogen Cat.#31053-036) per well with 10% FCS, 1% non-essential amino acids, 1% of Glutamax and 1% of 100× penicillin/streptomycin and incubated overnight at 37° C., 5% CO2, 100% relative humidity. […]

[1] = read-out: Genotype-1b replicon EC50 Range
[2] = read-out: Genotype-1b replicon EC50

Row | Compound | EC50 [1] | EC50 [2]
1 | COC(=O)N[C@H]1CCCCOCc2[nH]c(nc2-c2ccc(-c3ccc(-c4c[nH]c([C@@H]5CCCN5C(=O)[C@@H](NC(=O)OC)C(C)C)n4)cc3)cc2)[C@@H]2CCCN2C1=O [Example 83] | < 0.1 nM | –
2 | COC(=O)N[C@H]1CCCCOCc2[nH]c(nc2-c2ccc(-c3ccc(-c4c[nH]c([C@@H]5CC6(CC6)CN5C(=O)[C@@H](NC(=O)OC)C(C)C)n4)cc3)cc2)[C@@H]2CCCN2C1=O [Example 258] | < 0.1 nM | 0.014 nM
3 | COC(=O)N[C@H](C(=O)N1CCC[C@H]1c1nc(-c2ccc(-c3ccc(-c4nc5[nH]c4COCCC[C@H](C)[C@H](NC(=O)OC)C(=O)N4CCC[C@@H]54)cc3)cc2)c[nH]1)C(C)C [Example 317] | < 0.1 nM | –
4 | COC(=O)N[C@H](C(=O)N1CCC[C@H]1c1nc(-c2ccc(-c3ccc(-c4nc5[nH]c4COC/C=C/[C@H](C)[C@H](NC(=O)OC)C(=O)N4CCC[C@@H]54)cc3)cc2)c[nH]1)C(C)C [Example 318] | 0.1 to 1 nM | –
5 | COC(=O)N[C@H]1CCCCCOCc2[nH]c(nc2-c2ccc(-c3ccc(-c4c[nH]c([C@@H]5CCCN5C(=O)[C@@H](NC(=O)OC)C(C)C)n4)cc3)cc2)[C@@H]2CCCN2C1=O [Example 322] | < 0.1 nM | –
6 | COC(=O)N[C@H]1Cc2cc(on2)COCc2[nH]c(nc2-c2ccc(-c3ccc(-c4c[nH]c([C@@H]5CCCN5C(=O)[C@@H](NC(=O)OC)C(C)C)n4)cc3)cc2)[C@@H]2CCCN2C1=O [Example 333] | < 0.1 nM | 0.083 nM
7 | COC(=O)N[C@H]1CCCCOCc2[nH]c(nc2-c2ccc(-c3ccc(-c4nc5[nH]c4COCCCC[C@H](NC(=O)OC)C(=O)N4CCC[C@@H]54)cc3)cc2)[C@@H]2CCCN2C1=O [Example 336] | 0.1 to 1 nM | 0.175 nM
8 | COC(=O)N[C@H]1C/C=C/COCc2[nH]c(nc2-c2ccc(-c3ccc(-c4c[nH]c([C@@H]5CCCN5C(=O)[C@@H](NC(=O)OC)C(C)C)n4)cc3)cc2)[C@@H]2CCCN2C1=O [Example 344] | < 0.1 nM | 0.047 nM
9 | COC(=O)N[C@H](C(=O)N1CCC[C@H]1c1nc(-c2ccc(-c3ccc(-c4nc5[nH]c4COCCCCO[C@H](C)[C@H](NC(=O)OC)C(=O)N4CCC[C@@H]54)cc3)cc2)c[nH]1)C(C)C [Example 349] | < 0.1 nM | –
10 | COC(=O)N[C@H]1COCCCCOCc2[nH]c(nc2-c2ccc(-c3ccc(-c4c[nH]c([C@@H]5CCCN5C(=O)[C@@H](NC(=O)OC)C(C)C)n4)cc3)cc2)[C@@H]2CCCN2C1=O [Example 353] | < 0.1 nM | 0.023 nM
11 | COC(=O)N[C@H]1CCCCC/C=C\COCc2[nH]c(nc2-c2ccc(-c3ccc(-c4c[nH]c([C@@H]5CCCN5C(=O)[C@@H](NC(=O)OC)C(C)C)n4)cc3)cc2)[C@@H]2CCCN2C1=O [Example 355] | < 0.1 nM | –
12 | COC(=O)N[C@H]1CCCCCCCCOCc2[nH]c(nc2-c2ccc(-c3ccc(-c4c[nH]c([C@@H]5CCCN5C(=O)[C@@H](NC(=O)OC)C(C)C)n4)cc3)cc2)[C@@H]2CCCN2C1=O [Example 356] | < 0.1 nM | –
13 | COC(=O)N[C@H]1C/C=C/COCc2[nH]c(nc2-c2ccc(-c3ccc(-c4c[nH]c([C@@H]5CCCN5C(=O)[C@@H](NC(=O)OC)C(C)C)n4)cc3)cc2)CN(C)C1=O [Example 359] | > 1 nM | –
14 | COC(=O)N[C@H]1CCCCCCOCc2[nH]c(nc2-c2ccc(-c3ccc(-c4c[nH]c([C@@H]5CCCN5C(=O)[C@@H](NC(=O)OC)C(C)C)n4)cc3)cc2)[C@@H]2CCCN2C1=O [Example 366] | < 0.1 nM | –
15 | COC(=O)N[C@H]1CCCCCCCOCc2[nH]c(nc2-c2ccc(-c3ccc(-c4c[nH]c([C@@H]5CCCN5C(=O)[C@@H](NC(=O)OC)C(C)C)n4)cc3)cc2)[C@@H]2CCCN2C1=O [Example 368] | < 0.1 nM | –
